According to US20060173062A1, “Use of selective cyclooxygenase-2 inhibitors for the treatment of endometriosis” (priority 2003, published 2006):

Test system: rat uterine horn implants in the peritoneal cavity
Test: Rat model for endometriosis
Assay type: in vivo
Details: 14 days; for implant volume: FIG. 1; for implant weight: FIG. 2
From the text: FIG. 1 compares the mean volume of rat uterine horn implants in the peritoneal cavity of rats before and after 14 days of administration of a cyclooxygenase-2-selective inhibitor.
FIG. 2 compares the in mean weight of rat uterine horn implants in the peritoneal cavity of rats before and after 14 days of administration of a cyclooxygenase-2-selective inhibitor.
Rat Model for Endometriosis:
In this model 5×5 mm sections of rat uterine hom are implanted in the peritoneal cavity (extra uterine endometrial wall) of subject rats. Four weeks after transplantation of the endometrial tissues, rats were anesthetized with Telazol (20 mg/kg, IP, Fort Dodge Animal Health, Fort Dodge, Iowa), Oxymorphone (0.2 mg/kg SC, Henry Schein, Melville, N.Y.) and immobilized on a standard rat operating board. The surgical site was shaved and cleaned using three cycles of Betadine/alcohol or DuraPrep® (3M, St. Paul, Minn.). Using aseptic technique, an incision was made through the skin, SC and muscle layers. The growth of the explant was evaluated for size and acceptance/rejection. On gross examination, the endometrial implants appeared as uni-loculated (occasional as multilobulated) cystic masses filled with clear/light yellowish or dark brown serous fluid. In some instances, at the time of 2nd laparotomy, partial or complete adhesions from connective tissue, mesentry, and bowel to the implants were noted. In those instances, a careful separation was executed, avoiding the rupture the implants. While having a clear vision of the implants, the length, width and height of the implant was measured using a sterile Jameson Caliper (BRI, Rockville, Md.), and documented. The abdominal incisions were closed by using 4-0 chromic gut (Ethicon). The rats were observed until fully ambulatory.
More animals than required for the study were used for surgery. After the 2nd laparotomy, animals were assigned to control or treated groups in an attempt to equalize the endometrium implant size between groups. The rats bearing implant with clear/light yellowish fluid were used in study group selection. The rats bearing implant with dark brown fluid considered as hemorrhagic solid mass were excluded from the study.
Treatment with selected drug therapy started after 1 day of post-surgical recovery. Rats were given the test compound, the cyclooxygenase-2 selective inhibitor Compound A, or vehicle alone or Raloxifene (10 mpk) or Lupron Depot (1 mpk) for a period of 14 days. At the end of the 14-day treatment period, the animals were euthanized at pro-estrus cycle which was confirmed by vaginal smear. Necropsy involved opening the abdomen and evaluating the implant size. The implant and right uterine horn were excised for wet weighing.
Compound A has the following structure: [drawing 1] […]

Compound: CS(=O)(=O)c1ccc(C2COC(=O)C2c2ccc(F)c(F)c2)cc1 (stereo not shown) [Compound A]
- implant volume (1 mpk, BID by oral gavage): not significant at the 95 percent confidence level
- implant weight (1 mpk, BID by oral gavage): not significant at the 95 percent confidence level
- implant volume (10 mpk, BD by oral gavage): reduce implant volume and weight to a significant degree at the 95 percent confidence level
- implant weight (10 mpk, BD by oral gavage): reduce implant volume and weight to a significant degree at the 95 percent confidence level
